What was measured:
adenosine A2A receptor = target: T1, adenosine A2A receptor (Homo sapiens, UniProt P29274); test: Affinity for adenosine A2A receptor ([3H]CGS21680 binding, per Varani et al.)
T1 construct: from tissue
Text: The affinity and functionality towards the adenosine A2A receptor was essentially performed as described by Varani et al. (Varani, Pharmacological and biochemical characterization of purified A2A adenosine receptors in human platelet membranes by [^3H]CGS21680 binding, Br. J. Pharmacol. 117:1693-1701, 1996), Table 1.

[1] = system: antigen induced arthritis; test: Antigen induced arthritis (AIA), knee joint swelling; assay type: in vivo; conditions: rat, per oral administration, FIG. 1
Text: Antigen Induced Arthritis (AIA) in the rat is a well reproducible monoarthritis model. An intraarticular injection of the antigen methylated bovine serum albumin (mBSA) in the knee joint in sensitised animals induces an inflammatory response. The formation of pannus tissue, which invades the synovium, spreads over the articular cartilage and grows into the bone, leading to tissue erosion and remodeling.
AIA responds well to compounds used for standard clinical treatment of human arthritis. Therefore this model is appropriate for the evaluation of the effects of new compounds on joint inflammation and cartilage/bone degradation. The test compounds can be administered locally or systemically. The features of the arthritis can be followed and evaluated by measuring knee joint swelling, by functional scoring and histological analysis. Since it is a monoarthritis model, the level of inflammatory serum markers may be difficult to detect. The AIA model also serves as a source for the production of synoviocytes for in vitro culturing, in order to gain further insight in the synovial matrix composition and for drug screening purposes.
In Antigen induced arthritis—for the effect on knee diameter of Compound 1:16 after per oral administration—see FIG. 1.

T1 sequence (P29274 whole entry): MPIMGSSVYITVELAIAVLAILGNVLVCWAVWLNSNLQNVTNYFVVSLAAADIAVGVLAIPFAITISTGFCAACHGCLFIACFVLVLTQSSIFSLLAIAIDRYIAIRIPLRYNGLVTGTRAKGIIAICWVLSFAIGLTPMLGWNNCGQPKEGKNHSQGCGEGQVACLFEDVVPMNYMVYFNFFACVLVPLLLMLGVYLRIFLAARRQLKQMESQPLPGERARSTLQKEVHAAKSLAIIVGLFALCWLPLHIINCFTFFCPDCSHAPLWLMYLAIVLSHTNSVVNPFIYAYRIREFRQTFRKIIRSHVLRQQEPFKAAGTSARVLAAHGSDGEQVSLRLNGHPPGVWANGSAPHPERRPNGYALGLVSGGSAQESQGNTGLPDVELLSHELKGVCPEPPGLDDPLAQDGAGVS

SMILES	Ki (adenosine A2A receptor) [nM]	IC50 (adenosine A2A receptor) [nM]	swelling of the knee (knee diameter) [1]
NCCC(=O)N(CCc1c[nH]c2ccccc12)C(C(=O)NCc1ccccc1)c1ccc(Br)cc1Br (centres unmarked) [1:09, 3-Amino-N-[benzylcarbamoyl-(2,4-dibromo-phenyl)-methyl]-N-[2-(1H-indol-3-yl)-ethyl]-propionamide]	2870	5110	–
NCCC(=O)N(CCc1c[nH]c2ccccc12)C(C(=O)Nc1ccccc1)c1ccccc1Br (centres unmarked) [1:13, 3-Amino-N-[(2-bromo-phenyl)-phenylcarbamoyl-methyl]-N-[2-(1H-indol-3-yl)-ethyl]-propionamide]	60	–	–
NCCC(=O)N(CCc1c[nH]c2ccccc12)C(C(=O)Nc1ccccc1)c1ccc(Br)cc1 (centres unmarked) [1:15, 3-Amino-N-[(4-bromo-phenyl)-phenylcarbamoyl-methyl]-N-[2-(1H-indol-3-yl)-ethyl]-propionamide]	136	243	–
NCCC(=O)N(CCc1c[nH]c2ccccc12)C(C(=O)Nc1ccccc1)c1ccc(Br)cc1Br (centres unmarked) [Compound 1:16, 3-Amino-N-[(2,4-dibromo-phenyl)-phenylcarbamoyl-methyl]-N-[2-(1H-indol-3-yl)-ethyl]-propionamide]	17.5	31.1	reduced the swelling of the knee

Second part, led by results:

Ki (adenosine A2A receptor) [nM]	IC50 (adenosine A2A receptor) [nM]	SMILES	swelling of the knee (knee diameter) [1]
1000	–	NCCC(=O)N(CCc1c[nH]c2ccccc12)C(C(=O)NC1CCCCC1)c1ccccc1Br (centres unmarked) [1:02, 3-Amino-N-[(2-bromo-phenyl)-cyclohexylcarbamoyl-methyl]-N-[2-(1H-indol-3-yl)-ethyl]-propionamide]	–
1600	2840	NCCC(=O)N(CCc1c[nH]c2ccccc12)C(C(=O)NC1CCCCC1)c1ccc(Br)cc1Br (centres unmarked) [1:04, 3-Amino-N-[cyclohexylcarbamoyl-(2,4-dibromo-phenyl)-methyl]-N-[2-(1H-indol-3-yl)-ethyl]-propionamide]	–
